Values belong to the compound of their own block, whether it stands above or below them.
Key:
[1] = racemate compared with either D or L isomer alone, U.S. Pat. No. 4,695,576; cited from earlier work
[2] = reported in U.S. Pat. No. 4,870,086; cited from earlier work
[3] = Content of ropivacaine base dissolved in the filtered solution, by HPLC against a control solution; type: physicochemical; details: equimolar or less concentrated hydrochloric acid, even at about 60° C.
Procedure: Each resulting solution was warmed to about 50° C. and then cooled to room temperature with stirring for about 30 min., after which was added a suitable quantity of sodium chloride, and the total volume of each was made up to 25 mL. Osmolality of the filtered solution was determined using conventional freezing point osmometer. The pH of these solutions were in the range 3.2 to 3.5. The content of ropivacaine base dissolved in the solution was determined by HPLC against a control solution prepared by dissolving the same base in excess of hydrochloric acid.
Each resulting solution was warmed to about 50° C. with stirring for about 30 min., then cooled to room temperature, after which was added a suitable quantity of sodium chloride. The pH was then adjusted to 5.0 using sodium hydroxide solution, and then the volume was made up to 25 mL. The osmolality of the filtered solution was determined using conventional freezing point osmometer. The content of ropivacaine base dissolved in the solution was determined by HPLC against a control solution prepared by dissolving the same base in excess of hydrochloric acid.

[4] = optically pure form compared to the racemic mixture of bupivacaine; cited from earlier work
[5] = Hygroscopicity and stability of ropivacaine base and its salts; type: physicochemical

Compound: CCCCN1CCCCC1C(=O)Nc1c(C)cccc1C (racemic) [bupivacaine, racemic N-n-butylpipecolic acid-2,6-xylidide]
analgesic effects [1]: better analgesic effects

Compound: CCCN1CCCC[C@H]1C(=O)Nc1c(C)cccc1C.Cl [(L) N-n-propylpipecolic acid-2,6-xylidide hydrochloride]
hygroscopicity / stability [2]: hygroscopic and thus not stable

hygroscopicity [5]: not hygroscopic
stability compared with its hydrochloride or hydrochloride monohydrate salts [5]: much more stable
Compound: CCCN1CCCC[C@H]1C(=O)Nc1c(C)cccc1C [ropivacaine base, (L) N-n-propylpipecolic acid-2,6-xylidide]
dissolution in aqueous media [3]: did not yield a completely homogeneous solution
cardio-toxic potential [4]: reduced cardio-toxic potential
